We go through 1 compound from paper PMC5504166, “Rosmarinic Acid Protects against Inflammation and Cardiomyocyte Apoptosis during Myocardial Ischemia/Reperfusion Injury by Activating Peroxisome Proliferator-Activated Receptor Gamma” (Frontiers in Pharmacology, 2017).

Each structure is given as a SMILES string.

The term EC50 denotes the concentration at which the effect is half-maximal. By IC50 is commonly meant the concentration at which inhibition is half-maximal.

The target in one assay is T1, PPARγ (Homo sapiens, UniProt P37231).
T1 construct: gene PPARG
T1 sequence (P37231 1-505): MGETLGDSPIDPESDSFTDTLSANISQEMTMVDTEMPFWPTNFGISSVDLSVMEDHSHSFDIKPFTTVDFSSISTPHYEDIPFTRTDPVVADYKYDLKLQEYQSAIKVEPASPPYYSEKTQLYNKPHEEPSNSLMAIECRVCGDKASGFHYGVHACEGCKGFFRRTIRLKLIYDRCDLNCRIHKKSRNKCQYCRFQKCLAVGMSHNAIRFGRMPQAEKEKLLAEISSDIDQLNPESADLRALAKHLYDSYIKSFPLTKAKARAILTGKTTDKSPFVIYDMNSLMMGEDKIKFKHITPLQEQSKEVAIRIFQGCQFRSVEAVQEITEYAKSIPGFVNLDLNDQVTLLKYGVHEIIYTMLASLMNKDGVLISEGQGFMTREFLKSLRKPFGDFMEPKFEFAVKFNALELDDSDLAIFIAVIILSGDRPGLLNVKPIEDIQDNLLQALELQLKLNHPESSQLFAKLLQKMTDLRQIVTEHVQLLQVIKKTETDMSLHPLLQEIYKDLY
The experiment in a line: PolarScreen PPAR Gamma Competitor Assay, Green (fluorescence polarization competition). The format is binding. The settings on record: read-out: EC50 (mean ± SD μM).

Assay [1] deals with T2, PTGS2/COX2 (Prostaglandin G/H synthase 2) (Ovis aries, UniProt P79208).
T2 sequence (P79208 17-603): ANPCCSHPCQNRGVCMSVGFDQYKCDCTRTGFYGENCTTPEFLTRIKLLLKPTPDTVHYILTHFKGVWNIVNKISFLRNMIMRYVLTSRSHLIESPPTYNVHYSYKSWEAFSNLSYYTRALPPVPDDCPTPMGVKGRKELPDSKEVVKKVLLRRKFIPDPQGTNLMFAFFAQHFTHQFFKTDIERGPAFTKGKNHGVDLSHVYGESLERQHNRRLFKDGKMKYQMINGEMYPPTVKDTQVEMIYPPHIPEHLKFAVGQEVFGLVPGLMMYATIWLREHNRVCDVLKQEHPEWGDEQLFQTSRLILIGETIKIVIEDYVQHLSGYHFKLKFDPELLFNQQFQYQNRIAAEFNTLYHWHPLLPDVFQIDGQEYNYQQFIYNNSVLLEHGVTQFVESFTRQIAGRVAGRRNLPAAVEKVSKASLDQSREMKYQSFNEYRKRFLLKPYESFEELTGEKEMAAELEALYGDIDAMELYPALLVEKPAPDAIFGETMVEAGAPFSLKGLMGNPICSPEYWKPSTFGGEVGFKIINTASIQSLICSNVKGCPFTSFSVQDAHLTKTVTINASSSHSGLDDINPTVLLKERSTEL
Kind of assay: Colorimetric COX (ovine) inhibitor screening assay kit (Cayman). The format is biochemical. The note with it: read-out: IC50 (mean ± SD μM).

For `O=C(/C=C/c1ccc(O)c(O)c1)O[C@H](Cc1ccc(O)c(O)c1)C(=O)O` [RosA, Rosmarinic acid], on PPARγ, the concentration giving a half-maximal response (EC50) was 55.8 ± 3.45 µM. Besides, the 50% inhibitory concentration (IC50) in assay [1] is 170 ± 9.18 µM.
